Tests used:
Assay type in all cases: in vivo
Alopecurus myosuroides = test: Test Example 5: herbicidal effect by foliage application, plastic box (symbol J); settings: 320 g/ha, 3 weeks after application
Procedure, shortened: (§1)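 Post-emergence spray; diluvial soil (sterilized), ~1.5 cm seed cover; greenhouse 25–30° C; 14-day-old plants; water-diluted emulsion at predetermined dose; visual score at 3 wk post-treatment.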

[1] = system: Echinochloa crus-galli var. crus-galli; test: Test Example 4: herbicidal effect by soil treatment (symbol H)
Procedure, shortened: (§2)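 Seeds were sown in sterilized diluvial soil, covered with about 1.5 cm of soil, and the soil surface was sprayed with a water-diluted emulsion of the compound at a predetermined rate. Plants grew in a greenhouse at 25° C. to 30° C.; effects were scored visually 3 weeks after application.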

Scirpus juncoides = test: Test Example 2: herbicidal activity, application during weed generation in submerged conditions (symbol B); settings: Table 23; application herbicide amount 320 g/ha; grade 0-5 by criteria of Test Example 1
Procedure, shortened: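 Flooded-soil post-emergence test: emulsion of compound, water-diluted to target rate, applied to paddy water surface at 1–2 leaf stage of mixed-sown weeds (alluvial soil, 4 cm water, 25–30° C. greenhouse); visual rating 3 weeks after application.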

Apera spica-venti = test: Test Example 5: herbicidal effect by foliage application, plastic box (symbol L); settings: 320 g/ha, 3 weeks after application
Procedure, shortened: as §1

Stellaria media = test: Test Example 4: herbicidal effect by soil treatment (symbol P)
Procedure, shortened: as §2

rapeseed = test: Test Example 5: effect on crop by foliage application, plastic box (symbol g); settings: 320 g/ha, 3 weeks after application
Procedure, shortened: (§3)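 Diluvial soil, sterilized and boxed (21 × 13 × 7 cm), received spot-sown seed covered by about 1.5 cm soil; plants were then greenhouse-grown at 25–30° C.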

Abutilon theophrasti = test: Test Example 5: herbicidal effect by foliage application, plastic box (symbol M); settings: 320 g/ha, 3 weeks after application
Procedure, shortened: as §1

rice plant = test: Test Example 5: effect on crop by foliage application, plastic box (symbol b); settings: 320 g/ha, 3 weeks after application
Procedure, shortened: as §3

Monochoria vaginalis = test: Test Example 1: herbicidal activity, application before weed generation in submerged conditions (symbol C); settings: application herbicide amount 320 g/ha
Procedure, shortened: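 In a flooded pot test with alluvial soil, the emulsion-formulated compound was diluted with water to a predetermined amount and applied to the floodwater immediately on the sowing day. Pots were held in a greenhouse at 25–30 °C for 3 weeks before each weed was rated.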

[2] = system: Echinochloa crus-galli var. crus-galli; test: Test Example 5: herbicidal effect by foliage application, plastic box (symbol H); settings: 320 g/ha, 3 weeks after application
Procedure, shortened: as §1

Digitaria ciliaris = test: Test Example 4: herbicidal effect by soil treatment (symbol F)
Procedure, shortened: as §2

beet = test: Test Example 4: effect on crop by soil treatment (symbol f); settings: for f: beet, effect grade on crop: 320 g/ha
Procedure, shortened: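 Diluvial soil (sterilized) in boxes; seeds placed spot-wise alongside weed species; ~1.5 cm covering soil. Greenhouse, 25–30° C.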

[3] = application herbicide amount 320 g/ha

Structure (SMILES)	J: Alopecurus myosuroides, herbicidal effect grade (Alopecurus myosuroides)	Herbicidal effect grade, B: Scirpus juncoides (Scirpus juncoides)	L: Apera spica-venti, herbicidal effect grade (Apera spica-venti)	g: rapeseed, effect on crop grade (rapeseed)	M: Abutilon theophrasti, herbicidal effect grade (Abutilon theophrasti)	b: directly sowed rice plant, effect on crop grade (rice plant)	Herbicidal effect grade, C: Monochoria vaginalis (Monochoria vaginalis)	H: Echinochloa crus-galli var. crus-galli, herbicidal effect grade [2]	J: Alopecurus myosuroides, herbicidal effect (criteria 0-5) (Alopecurus myosuroides)	H: Echinochloa crus-galli var. crus-galli, herbicidal effect grade ([1]; 320 g/ha)	L: Apera spica-venti, herbicidal effect (criteria 0-5) (Apera spica-venti)	P: Stellaria media, herbicidal effect grade (Stellaria media; 320 g/ha)	g: rapeseed, effect on crop (criteria 0-5) (rapeseed)	M: Abutilon theophrasti, herbicidal effect (criteria 0-5) (Abutilon theophrasti)	b: directly sowed rice plant, effect on crop (criteria 0-5) (rice plant)	H: Echinochloa crus-galli var. crus-galli, herbicidal effect (criteria 0-5) [2]	F: Digitaria ciliaris, herbicidal effect grade (Digitaria ciliaris; 320 g/ha)	f: beet, effect grade on crop (beet)	also measured
CON=C(C)CC1CC(O)=C(c2c(C)cc(-c3ccc(Cl)nc3)cc2C)C1=O (mixture of isomers) [6-035]	5 (Herbicidal ratio of 90% or more (almost completely withered))	4 (Herbicidal ratio of 70% or higher and lower than 90%)	5 (Herbicidal ratio of 90% or more (almost completely withered))	4 (Herbicidal ratio of 70% or higher and lower than 90%)	4 (Herbicidal ratio of 70% or higher and lower than 90%)	5 (Herbicidal ratio of 90% or more (almost completely withered))	1 (Herbicidal ratio of 5% or higher and lower than 20%)	5 (Herbicidal ratio of 90% or more (almost completely withered))	–	–	–	–	–	–	–	–	–	–	H: Echinochloa crus-galli var. crus-galli, herbicidal effect grade [1, 3]: 5 (Herbicidal ratio of 90% or more (almost completely withered)); P: Stellaria media, herbicidal effect grade (Stellaria media; [3]): 3 (Herbicidal ratio of 40% or higher and lower than 70%); F: Digitaria ciliaris, herbicidal effect grade (Digitaria ciliaris; [3]): 5 (Herbicidal ratio of 90% or more (almost completely withered)); f: beet, effect on crop grade (beet; [3]): 0 (Herbicidal ratio of 5% or lower (almost no effect))
CON=C(C)CC1CC(OC(=O)c2ccccc2)=C(c2c(C)cc(C)cc2C)C1=O (stereo not drawn) [1-010]	5 (Herbicidal ratio of 90% or more (almost completely withered))	5 (Herbicidal ratio of 90% or more (almost completely withered))	5 (Herbicidal ratio of 90% or more (almost completely withered))	4 (Herbicidal ratio of 70% or higher and lower than 90%)	4 (Herbicidal ratio of 70% or higher and lower than 90%)	5 (Herbicidal ratio of 90% or more (almost completely withered))	2 (Herbicidal ratio of 20% or higher and lower than 40%)	5 (Herbicidal ratio of 90% or more (almost completely withered))	–	–	–	–	–	–	–	–	–	–	H (Echinochloa crus-galli var. crus-galli) herbicidal effect grade [1, 3]: 5 (Herbicidal ratio of 90% or more (almost completely withered)); P (Stellaria media) herbicidal effect grade (Stellaria media; [3]): 4 (Herbicidal ratio of 70% or higher and lower than 90%); F (Digitaria ciliaris) herbicidal effect grade (Digitaria ciliaris; [3]): 5 (Herbicidal ratio of 90% or more (almost completely withered)); f (beet) effect on crop grade (beet; [3]): 4 (Herbicidal ratio of 70% or higher and lower than 90%)
CON=C(C)CC1CC(OCC#N)=C(c2c(C)cc(C)cc2C)C1=O (stereo not drawn) [1-013]	4 (Herbicidal ratio of 70% or higher and lower than 90%)	0 (Herbicidal ratio of 5% or lower (almost no effect))	4 (Herbicidal ratio of 70% or higher and lower than 90%)	4 (Herbicidal ratio of 70% or higher and lower than 90%)	0 (Herbicidal ratio of 5% or lower (almost no effect))	2 (Herbicidal ratio of 20% or higher and lower than 40%)	0 (Herbicidal ratio of 5% or lower (almost no effect))	0 (Herbicidal ratio of 5% or lower (almost no effect))	–	–	–	–	–	–	–	–	–	–	H (Echinochloa crus-galli var. crus-galli) herbicidal effect grade [1, 3]: 0 (Herbicidal ratio of 5% or lower (almost no effect)); P (Stellaria media) herbicidal effect grade (Stellaria media; [3]): 0 (Herbicidal ratio of 5% or lower (almost no effect)); F (Digitaria ciliaris) herbicidal effect grade (Digitaria ciliaris; [3]): 0 (Herbicidal ratio of 5% or lower (almost no effect)); f (beet) effect on crop grade (beet; [3]): 0 (Herbicidal ratio of 5% or lower (almost no effect))
CON=C(C)CC1CC(OS(=O)(=O)CCCCl)=C(c2c(C)cc(C)cc2C)C1=O (stereo not drawn) [1-142]	–	4 (Herbicidal ratio of 70% or higher and lower than 90%)	–	–	–	–	2 (Herbicidal ratio of 20% or higher and lower than 40%)	–	5 (Herbicidal ratio of 90% or more (almost completely withered))	5 (Herbicidal ratio of 90% or more (almost completely withered))	5 (Herbicidal ratio of 90% or more (almost completely withered))	0 (Herbicidal ratio of 5% or lower (almost no effect))	4 (Herbicidal ratio of 70% or higher and lower than 90%)	4 (Herbicidal ratio of 70% or higher and lower than 90%)	5 (Herbicidal ratio of 90% or more (almost completely withered))	5 (Herbicidal ratio of 90% or more (almost completely withered))	5 (Herbicidal ratio of 90% or more (almost completely withered))	0 (Herbicidal ratio of 5% or lower (almost no effect))	–
CON=C(C)CC1CC(OS(=O)(=O)C2CC2)=C(c2c(C)cc(C)cc2C)C1=O (stereo not drawn) [1-143]	–	4 (Herbicidal ratio of 70% or higher and lower than 90%)	–	–	–	–	1 (Herbicidal ratio of 5% or higher and lower than 20%)	–	5 (Herbicidal ratio of 90% or more (almost completely withered))	0 (Herbicidal ratio of 5% or lower (almost no effect))	5 (Herbicidal ratio of 90% or more (almost completely withered))	0 (Herbicidal ratio of 5% or lower (almost no effect))	4 (Herbicidal ratio of 70% or higher and lower than 90%)	1 (Herbicidal ratio of 5% or higher and lower than 20%)	2 (Herbicidal ratio of 20% or higher and lower than 40%)	5 (Herbicidal ratio of 90% or more (almost completely withered))	1 (Herbicidal ratio of 5% or higher and lower than 20%)	0 (Herbicidal ratio of 5% or lower (almost no effect))	–
CON=C(C)CC1CC(OS(=O)(=O)CC[Si](C)(C)C)=C(c2c(C)cc(C)cc2C)C1=O (stereo not drawn) [1-144]	–	4 (Herbicidal ratio of 70% or higher and lower than 90%)	–	–	–	–	3 (Herbicidal ratio of 40% or higher and lower than 70%)	–	5 (Herbicidal ratio of 90% or more (almost completely withered))	5 (Herbicidal ratio of 90% or more (almost completely withered))	5 (Herbicidal ratio of 90% or more (almost completely withered))	0 (Herbicidal ratio of 5% or lower (almost no effect))	4 (Herbicidal ratio of 70% or higher and lower than 90%)	4 (Herbicidal ratio of 70% or higher and lower than 90%)	5 (Herbicidal ratio of 90% or more (almost completely withered))	5 (Herbicidal ratio of 90% or more (almost completely withered))	5 (Herbicidal ratio of 90% or more (almost completely withered))	0 (Herbicidal ratio of 5% or lower (almost no effect))	–
CON=C(C)CC1CC(OC(=O)OCc2ccccc2)=C(c2c(C)cc(C)cc2C)C1=O (stereo not drawn) [1-145]	–	5 (Herbicidal ratio of 90% or more (almost completely withered))	–	–	–	–	1 (Herbicidal ratio of 5% or higher and lower than 20%)	–	5 (Herbicidal ratio of 90% or more (almost completely withered))	5 (Herbicidal ratio of 90% or more (almost completely withered))	5 (Herbicidal ratio of 90% or more (almost completely withered))	3 (Herbicidal ratio of 40% or higher and lower than 70%)	4 (Herbicidal ratio of 70% or higher and lower than 90%)	3 (Herbicidal ratio of 40% or higher and lower than 70%)	5 (Herbicidal ratio of 90% or more (almost completely withered))	5 (Herbicidal ratio of 90% or more (almost completely withered))	5 (Herbicidal ratio of 90% or more (almost completely withered))	0 (Herbicidal ratio of 5% or lower (almost no effect))	–

Reference: patent publication US11000033B2, “Ketone or oxime compound, and herbicide” (NISSAN CHEMICAL CORPORATION, priority 2014, dated 2021)
